Source: patent publication US5912251A, “Metabolically inert anti-inflammatory and anti-tumor antifolates” (priority 1998, dated 1999)

Assays:
allergic rabbits = assay: allergen-induced asthmatic responses and bronchial hyper-responsiveness (BHR) in allergic rabbits; assay type: in vivo, New Zealand White rabbit; settings: for Asthmatic Response, Early: percent inhibition from control / Asthmatic Response, Late: percent inhibition from control / BHR (bronchial hyper-responsiveness): percent inhibition from control: aerosol 5 mg/ml; for Asthmatic Response, Early: percent inhibition from control: early-phase area under the curve; for Asthmatic Response, Late: percent inhibition from control: late-phase area under the curve; for BHR (bronchial hyper-responsiveness): percent inhibition from control: repeat histamine challenge 24 hour later
Method: Experimental Model: Induction of Asthma in Rabbits. New Zealand White Pasturella-free rabbit litter mates were bred and immunized ip within 24 hour of birth with 312 AU dust mite allergen extract [Berkeley Biological, Berkeley, Calif.] in 10% kaolin once every week for one month, then biweekly until the age of 4 months. Mustafa and co-workers used this rabbit model as described in American Journal of Physiology [266, 271-277, 1994]. These allergic animals preferentially produce allergen-specific IgE antibody and typically respond to aeroallergen challenge with an early and late phase asthmatic response and show increased bronchial hyper responsiveness (BHR).
Allergen, Theophylline and Antifolate Challenges: These experiments were carried out as described by Mustafa and co-workers in the Journal, Agents and Actions in 1992 [37, 168-170, 1992 ]. Briefly, allergic rabbits were challenged with ragweed allergen aerosol (10,000 PNU/mL) as described until there was an approximate 50% reduction in dynamic compliance (Cdyn). Pulmonary function was measured at 15 minutes intervals for 6 hours. The rabbit was challenged with indicated antifolates [5 mg/mL, aerosolized for 4 minutes ] followed immediately by the same total dose of allergen. Pulmonary function measurements as described by Mustafa and co-workers in the cited reference were carried out for 6 hours.
To assess the effect of antifolates on allergen-induced changes in the airways, the area under the curve for early and late -phase response was digitalized by computer-assisted plenometry for each rabbit during the six hour time period.

[1] = tested on: carboxypeptidase derived from Pseudomonad sp
Excerpt: (§1) As part of a continuing program aimed at the development of less toxic and more specific antifolate drugs for the treatment of human cancers, the pteridine ring of the experimental anticancer drug methylene-10-deazaaminopterin [MDAM] was replaced with a quinazoline ring.

SF 539 = assay: Human Disease Oriented in vitro Antitumor Screen (NCI), total growth inhibition, SF 539; assay type: cell-based; settings: CNS Cancer
Method: (§2) Compound 1 was evaluated for its anti-tumor activity using the Human Disease Oriented in vitro Antitumor Screen at the National Cancer Institute.

SR = assay: Human Disease Oriented in vitro Antitumor Screen (NCI), total growth inhibition, SR; assay type: cell-based; settings: Leukemia
Method: as §2

CCRF-CEM = assay: Human Disease Oriented in vitro Antitumor Screen (NCI), total growth inhibition, CCRF-CEM; assay type: cell-based; settings: Leukemia
Method: as §2

MOLT-4 = assay: Human Disease Oriented in vitro Antitumor Screen (NCI), total growth inhibition, MOLT-4; assay type: cell-based; settings: Leukemia
Method: as §2

K562 = assay: Human Disease Oriented in vitro Antitumor Screen (NCI), total growth inhibition, K562; assay type: cell-based; settings: Leukemia
Method: as §2

RPMI 8226 = assay: Human Disease Oriented in vitro Antitumor Screen (NCI), total growth inhibition, RPMI 8226; assay type: cell-based; settings: Leukemia
Method: as §2

[2] = molecular target: T1, human dihydrofolate Reductase (Homo sapiens, UniProt P00374); assay: inhibition of human dihydrofolate reductase; assay type: biochemical; settings: human enzyme; read-out: I50
T1 sequence (P00374 1-187): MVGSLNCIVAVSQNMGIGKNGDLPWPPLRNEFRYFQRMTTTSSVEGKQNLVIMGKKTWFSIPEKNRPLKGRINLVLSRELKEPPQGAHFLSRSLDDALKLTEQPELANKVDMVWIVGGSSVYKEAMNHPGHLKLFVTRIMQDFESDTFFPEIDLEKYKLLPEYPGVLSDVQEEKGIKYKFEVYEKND
Excerpt: In order to unravel the mechanism of action of 1 and 1 e they were examined as inhibitors of human dihydrofolate Reductase.

[3] = tested on: leukemia cells that are resistant to MTX by virtue of defective polyglutamylation; assay: growth inhibition of MTX-resistant leukemia cells with defective polyglutamylation vs wild type CCRF-CEM; assay type: cell-based; settings: defective polyglutamylation line compared to wild type MTX sensitive parental CCRF-CEM
Excerpt: as §1

[4] = tested on: rabbit liver aldehyde oxidase; assay: incubation with rabbit liver aldehyde oxidase (conversion to 7-hydroxy derivative); assay type: in vitro ADME
[5] = tested on: human leukemia and human solid tumor cells; assay: inhibitory activity against the growth of human cancer cells in culture; assay type: cell-based
MCF7 = assay: Human Disease Oriented in vitro Antitumor Screen (NCI), total growth inhibition, MCF7; assay type: cell-based; settings: Breast Cancer
Method: as §2

MCF7-ADR-RES = assay: Human Disease Oriented in vitro Antitumor Screen (NCI), total growth inhibition, MCF7-ADR-RES; assay type: cell-based; settings: Breast Cancer
Method: as §2

[6] = tested on: folylpolyglutamate synthetase; assay: evaluation in vitro using folylpolyglutamate synthetase (polyglutamylation); assay type: in vitro ADME
[7] = tested on: selected human tumor cells; assay: Human Disease Oriented in vitro Antitumor Screen (NCI), panel as a whole; assay type: cell-based
Method: Compound 1 was evaluated for its anti-tumor activity using the Human Disease Oriented in vitro Antitumor Screen at the National Cancer Institute. […] This unexpected finding may be due to the inability of 1 to undergo metabolic transformation.

Row | Compound | Asthmatic Response, Early: percent inhibition from control (allergic rabbits) | Asthmatic Response, Late: percent inhibition from control (allergic rabbits) | BHR (bronchial hyper-responsiveness): percent inhibition from control (allergic rabbits) | removal of the 4-methyleneglutamate moiety by carboxypeptidase [1] | Log 10 TGI (SF 539) | Log 10 TGI (SR) | Log 10 TGI (CCRF-CEM) | Log 10 TGI (MOLT-4) | Log 10 TGI (K562) | Log 10 TGI (RPMI 8226) | further results
1 | Cn1c(=O)c2[nH]cnc2n(C)c1=O [Theophylline, theophylline] | 45% | 49% | 39% | – | – | – | – | – | – | – | –
2 | C=C(CC(NC(=O)c1ccc(N(C)Cc2ccc3nc(N)nc(N)c3c2)cc1)C(=O)O)C(=O)O (stereo not shown) [Compound 1d] | – | – | – | failed to remove the 4-methyleneglutamate moiety | – | – | – | – | – | – | –
3 | CN(Cc1cnc2nc(N)nc(N)c2n1)c1ccc(C(=O)N[C@@H](CCC(=O)O)C(=O)O)cc1 [MTX, methotrexate, reference compound] | 29% | 37% | 32% | – | -3.66 | -3.25 | -3.77 | -3.55 | -3.3 | -3.66 | –
4 | C=C(CC(NC(=O)c1ccc(CCc2ccc3nc(N)nc(N)c3c2)cc1)C(=O)O)C(=O)O (stereo not shown) [Compound 1, 5,8,10-trideaza-4'-methyleneaminopterin] | 52% | 58% | 47% | failed to remove the 4-methyleneglutamate moiety | -6.3 | < -8.00 | < -8.00 | -7.4 | < -8.00 | -7.44 | IC50 [2]: 66 nM; collateral sensitivity: times more sensitive in inhibiting the growth of MTX-resistant leukemia cells [3]: 4-5 times; conversion to 7-hydroxy derivative by aldehyde oxidase [4]: completely inert; inhibitory activity against the growth of human cancer cells relative to MTX or MDAM [5]: strikingly more active than either MTX or MDAM; killing of human leukemia and solid tumor cells in culture ([5]; therapeutically relevant concentrations): able to kill a large number of human luekemia and human solid tumor cells in culture at therapeutically relevant concentrations; Log 10 TGI (MCF7): -6.32; Log 10 TGI (MCF7-ADR-RES): -7.26; anti-asthmatic activity (in words) (allergic rabbits; relative to MTX and theophylline): not only superior to MTX but also to the well known anti-asthmatic drug theophylline in both early and late asthmatic responses and bronchial hyper responsiveness (BHR); elaboration to polyglutamates [6]: not capable of elaboration to its polyglutamates; killing of cancer cells (in words) ([7]; NCI in vitro antitumor screen): able to kill cancer cells with remarkable potency; times more effective than MTX in this panel ([7]; total growth inhibition, NCI panel of Table 2): 1,000-10,000 times
